{"source": "patent US7626043B2", "about": "“Antiproliferative activity of the leiodermatolide class of macrolides” (Florida Atlantic University Board of Trustees, priority 2006, dated 2009)", "format_in_all_cases": "cell-based", "key": {"[1]": {"test_system": "DLD-1 human colorectal carcinoma", "assay": "MTT antiproliferative/cytotoxicity assay, DLD-1", "settings": "72-h exposure", "description": "(§1) Leiodermatolide was analyzed as to its effects on the proliferation of a panel of tumor cell lines including both cell lines. The cell lines tested include: A549 human lung adenocarcinoma, NCI-ADR-RES (Formerly MCF-7/ADR) human cancer, PANC-1 human pancreatic cancer, DLD-1 human colorectal carcinoma, and P388 murine leukemia cell lines. P388 cells were obtained from Dr. R. Camalier, National Cancer Institute Bethesda, Md., and A549, PANC-1, DLD-1 and NCI-ADR-RES cells were obtained from American Type Culture Collection, Rockville, Md. […]\n(§2) A volume of 75 μl of warm growth media containing 5 mg/ml MTT is added to each well, cultures returned to the incubator, and left undisturbed for 3 hours. To spectrophotometrically quantitate formation of reduced formazan, plates are centrifuged (900×g, 5 minutes), culture fluids removed by aspiration, and 200 μl of acidified isopropanol (2 ml concentrated HCl/liter isopropanol) added per well. The absorbance of the resulting solutions is measured at 570 nm with a plate reader (BMG labtech NOVOStar). […] The two standard drug controls (indicated above) are included in each assay to monitor the drug sensitivity of each of the cell lines and IC50 values are determined for each drug-cell combination."}, "[2]": {"test_system": "PANC-1 human pancreatic carcinoma cells", "assay": "Cell cycle analysis (propidium iodide flow cytometry), PANC-1", "settings": "PANC-1, 24 hr", "description": "PANC-1 human pancreatic carcinoma cells were used as cell cycle targets to compare the effects on perturbation of the cell cycle of leiodermatolide and the known mitotic spindle inhibitor Paclitaxel. Cell cycle analyses were performed as follows: PANC-1 […] were incubated in tissue culture media (TCM=Roswell Park Memorial Institute (RPMI) medium 1640 supplemented with 100 U/ml penicillin, […] 1-glutamine, 18 mM HEPES, 0.05 mg/ml gentamicin, 100 μg/ml sodium pyruvate, 2.5 mg/ml glucose and 10% fetal bovine serum) at 37° C. in 5% CO2 in air in the presence or absence of varying concentrations of leiodermatolide or Paclitaxel for 24 hours.\n(§3) Cells were harvested, fixed in ethanol and stained with 0.02 mg/ml of propidium iodide (P.I.) together with 0.1 mg/ml of RNAse A. This procedure permeabilizes cells and allows entry of P.I. to stain DNA (propidium iodide also stains double stranded RNA, so RNAse is included in the preparation to exclude this possibility). Stained preparations were analyzed on a BD Sciences Calibur Flow Cytometer with 488 nm excitation. Fluorescence measurements and resulting DNA histograms were collected from at least 3,000 P.I. stained cells at an emission wavelength of 690 nm. Raw histogram data was further analyzed using a cell cycle analysis program (Multicycle, Phoenix Flow Systems)."}, "P388 murine leukemia": {"test_system": "P388 murine leukemia", "assay": "MTT antiproliferative/cytotoxicity assay, P388", "settings": "Mus musculus, 48-hr exposure", "description": "as §1, §2"}, "[3]": {"test_system": "A549 human lung adenocarcinoma", "assay": "MTT antiproliferative/cytotoxicity assay, A549", "settings": "72-h exposure", "description": "as §1, §2"}, "[4]": {"test_system": "A549 human lung adenocarcinoma cells", "assay": "Cell cycle analysis (propidium iodide flow cytometry), A549", "settings": "A549, 24 hr", "description": "A549 human lung adenocarcinoma cells were used as cell cycle targets to compare the effects on perturbation of the cell cycle of leiodermatolide to the known mitotic spindle inhibitor Paclitaxel. Cell cycle analyses were performed as follows: A549 human lung adenocarcinoma cells were incubated in tissue culture media (TCM=Roswell Park Memorial Institute (RPMI) medium 1640 supplemented with 100 U/ml penicillin, […] 1-glutamine, 18 mM HEPES, 0.05 mg/ml gentamicin and 10% fetal bovine serum) at 37° C. in 5% CO2 in air in the presence or absence of varying concentrations of leiodermatolide or Paclitaxel for 24 hours.\nas §3"}, "[5]": {"test_system": "NCI-ADR-RES (Formerly MCF-7/ADR) human cancer", "assay": "MTT antiproliferative/cytotoxicity assay, NCI-ADR-RES", "settings": "72-h exposure, read-out: NCIADR-RES IC50", "description": "as §1, §2"}, "[6]": {"test_system": "PANC-1 human pancreatic cancer", "assay": "MTT antiproliferative/cytotoxicity assay, PANC-1", "settings": "72-h exposure", "description": "as §1, §2"}, "[7]": {"settings": "10 nM, listed as leiodermatolide"}, "[8]": {"settings": "100 nM, listed as leiodermatolide"}}, "data": [{"compound": "CCC1OC(=O)CC(O)(C/C=C/C=C(\\C)C2OC(=O)CC/C=C(\\C)C(C)C(O)C(C)C(OC(N)=O)/C=C\\C=C/C2C)C1C", "note": "(centres unmarked) [Leiodermatolide]", "values": [{"measurement": "IC50", "setting": "[1]", "value": 8.3, "unit": "nM"}, {"measurement": "G1 (percentage of cells)", "setting": "[2]; 1 nM", "value": 47.88, "unit": "%"}, {"measurement": "G2/M (percentage of cells)", "setting": "[2]; 1 nM", "value": 28.93, "unit": "%"}, {"measurement": "S (percentage of cells)", "setting": "[2]; 1 nM", "value": 23.18, "unit": "%"}, {"measurement": "G1 (percentage of cells)", "setting": "[2]; 10 nM", "value": 12.04, "unit": "%"}, {"measurement": "G2/M (percentage of cells)", "setting": "[2]; 10 nM", "value": 83.45, "unit": "%"}, {"measurement": "S (percentage of cells)", "setting": "[2]; 10 nM", "value": 4.51, "unit": "%"}, {"measurement": "G1 (percentage of cells)", "setting": "[2]; [7]", "value": 12, "unit": "%"}, {"measurement": "G2/M (percentage of cells)", "setting": "[2]; [7]", "value": 83, "unit": "%"}, {"measurement": "S (percentage of cells)", "setting": "[2]; [7]", "value": 4, "unit": "%"}, {"measurement": "G1 (percentage of cells)", "setting": "[2]; 100 nM", "value": 16.55, "unit": "%"}, {"measurement": "G2/M (percentage of cells)", "setting": "[2]; 100 nM", "value": 77.45, "unit": "%"}, {"measurement": "S (percentage of cells)", "setting": "[2]; 100 nM", "value": 6.00, "unit": "%"}, {"measurement": "G1 (percentage of cells)", "setting": "[2]; [8]", "value": 16, "unit": "%"}, {"measurement": "G2/M (percentage of cells)", "setting": "[2]; [8]", "value": 77, "unit": "%"}, {"measurement": "S (percentage of cells)", "setting": "[2]; [8]", "value": 6, "unit": "%"}, {"measurement": "G1 (percentage of cells)", "setting": "[2]; 1000 nM", "value": 29.54, "unit": "%"}, {"measurement": "G2/M (percentage of cells)", "setting": "[2]; 1000 nM", "value": 63.92, "unit": "%"}, {"measurement": "S (percentage of cells)", "setting": "[2]; 1000 nM", "value": 6.53, "unit": "%"}, {"measurement": "IC50", "setting": "P388 murine leukemia", "value": 3.3, "unit": "nM"}, {"measurement": "IC50", "setting": "[3]", "value": 3.3, "unit": "nM"}, {"measurement": "G1 (percentage of cells)", "setting": "[4]; 1 nM", "value": 55.75, "unit": "%"}, {"measurement": "G2/M (percentage of cells)", "setting": "[4]; 1 nM", "value": 13.40, "unit": "%"}, {"measurement": "S (percentage of cells)", "setting": "[4]; 1 nM", "value": 30.85, "unit": "%"}, {"measurement": "G1 (percentage of cells)", "setting": "[4]; 10 nM", "value": 2.97, "unit": "%"}, {"measurement": "G2/M (percentage of cells)", "setting": "[4]; 10 nM", "value": 97.03, "unit": "%"}, {"measurement": "S (percentage of cells)", "setting": "[4]; 10 nM", "value": 0.00, "unit": "%"}, {"measurement": "G1 (percentage of cells)", "setting": "[4]; [7]", "value": 3, "unit": "%"}, {"measurement": "G2/M (percentage of cells)", "setting": "[4]; [7]", "value": 97, "unit": "%"}, {"measurement": "S (percentage of cells)", "setting": "[4]; [7]", "value": 0, "unit": "%"}, {"measurement": "G1 (percentage of cells)", "setting": "[4]; 100 nM", "value": 1.70, "unit": "%"}, {"measurement": "G2/M (percentage of cells)", "setting": "[4]; 100 nM", "value": 98.30, "unit": "%"}, {"measurement": "S (percentage of cells)", "setting": "[4]; 100 nM", "value": 0.00, "unit": "%"}, {"measurement": "G1 (percentage of cells)", "setting": "[4]; [8]", "value": 2, "unit": "%"}, {"measurement": "G2/M (percentage of cells)", "setting": "[4]; [8]", "value": 98, "unit": "%"}, {"measurement": "S (percentage of cells)", "setting": "[4]; [8]", "value": 0, "unit": "%"}, {"measurement": "G1 (percentage of cells)", "setting": "[4]; 1000 nM", "value": 4.99, "unit": "%"}, {"measurement": "G2/M (percentage of cells)", "setting": "[4]; 1000 nM", "value": 95.01, "unit": "%"}, {"measurement": "S (percentage of cells)", "setting": "[4]; 1000 nM", "value": 0.00, "unit": "%"}, {"measurement": "IC50", "setting": "[5]", "value": 233, "unit": "nM"}, {"measurement": "IC50", "setting": "[6]", "value": 5, "unit": "nM"}]}, {"compound": "CC(=O)O[C@H]1C(=O)[C@@]2(C)[C@H]([C@H](OC(=O)c3ccccc3)[C@]3(O)C[C@H](OC(=O)[C@H](O)[C@@H](NC(=O)c4ccccc4)c4ccccc4)C(C)=C1C3(C)C)[C@]1(OC(C)=O)CO[C@@H]1C[C@@H]2O", "note": "[Paclitaxel, reference compound]", "values": [{"measurement": "G1 (percentage of cells)", "setting": "[2]; 100 nM", "value": 10, "unit": "%"}, {"measurement": "G2/M (percentage of cells)", "setting": "[2]; 100 nM", "value": 88, "unit": "%"}, {"measurement": "S (percentage of cells)", "setting": "[2]; 100 nM", "value": 2, "unit": "%"}, {"measurement": "G1 (percentage of cells)", "setting": "[2]; 100 nM, listed as paclitaxel", "value": 9.76, "unit": "%"}, {"measurement": "G2/M (percentage of cells)", "setting": "[2]; 100 nM, listed as paclitaxel", "value": 88.36, "unit": "%"}, {"measurement": "S (percentage of cells)", "setting": "[2]; 100 nM, listed as paclitaxel", "value": 1.88, "unit": "%"}, {"measurement": "G1 (percentage of cells)", "setting": "[4]; 100 nM", "value": 2, "unit": "%"}, {"measurement": "G2/M (percentage of cells)", "setting": "[4]; 100 nM", "value": 98, "unit": "%"}, {"measurement": "S (percentage of cells)", "setting": "[4]; 100 nM", "value": 0, "unit": "%"}, {"measurement": "G1 (percentage of cells)", "setting": "[4]; 100 nM, listed as taxol", "value": 2.18, "unit": "%"}, {"measurement": "G2/M (percentage of cells)", "setting": "[4]; 100 nM, listed as taxol", "value": 97.82, "unit": "%"}, {"measurement": "S (percentage of cells)", "setting": "[4]; 100 nM, listed as taxol", "value": 0.00, "unit": "%"}]}]}
